Results published in patent US20160251614A1, “CELL CULTURE MEDIUM AND BIOPROCESS OPTIMIZATION” (UNIVERSITY OF NOTRE DAME DU LAC, priority 2013, published 2016).

Legend:
Assay type in all cases: cell-based, Drosophila
C1.8 cells [1] = test: Primary small molecule screen in ZO Fortified, CyQUANT Direct Proliferation Assay; details: C1.8 cells in ZO Fortified; for compound z-score (zC1.8): 4 days, z vs negative control, hit cutoffs z=±3; for hit call, primary screen: hit cutoffs ±3
Procedure: (§1) Five stock plates of randomized compounds (410 total) were prepared at 75 μM in water (1:133 dilution) using an automated liquid handler (Eppendorf EPMotion 5075). Strategically located negative control wells were incorporated into the stock plates by dosing wells with DMSO (1:133, carrier only control). Randomly placed positive control wells were also included by dosing wells with DMSO (1:133); for flexibility, positive controls were prepared in the working stock. Working stocks plates at 2 and 20 μM (2×) were then prepared in ZO Fortified by diluting the 5 stock plates 1:3.75 (high concentration working stock) and then serially diluting 1:10 (low concentration working stock). Positive control wells were prepared by replacing 10% of the media with 100% fly extract (FEX).
(§2) Cells were rinsed three times in PBS and seeded at a concentration of 50,000 cells/well (50 μL) in ZO Fortified (primary screen) or ZO Fortified supplemented with 2 μM spermidine (secondary screen) in 10 plates. Working stocks, 50 μL, were then immediately added on top of the cells (day 0). Plates were incubated at 25° C. for four days. On the fourth day, plates were imaged at 10× magnification on a confocal microscope using automated screen acquisition (Andor Spinning Disc Confocal Microscope, Metamorph Software). CyQUANT® Direct Proliferation Assay (Invitrogen) was then added (0.25× final conc.) and fluorescent intensity was measured with a plate reader (Biotek Synergy H2).
(§3) Five stock plates of randomized compounds in singlet (410 total) were prepared at 75 μM in water (1:133 dilution) using an automated liquid handler (Eppendorf epMotion® 5075). Ten strategically located negative controls were incorporated into each stock plate by dosing wells with DMSO (1:133, carrier only control) (Zhang, Optimal High-Throughput Screening: Practical Experimental Design and Data Analysis for Genome Scale RNAi Research, 2011). Four randomly placed positive control wells were also included on each plate by dosing wells with DMSO (1:133) for consistency, but for flexibility positive control treatments were prepared in the working stock. Working stocks at 2 and 20 μM (2×) were then prepared in ZO Fortified by diluting the 5 stock plates 1:3.75 (high concentration working stock) and then serially diluting 1:10 (low concentration working stock). Positive control wells were prepared by replacing 10% of the media with 100% fly extract (FEX) (see Zartman et al., Dev. Camb. Engl., 2013, 140, 667-674).
(§4) Cells were rinsed three times in phosphate buffered saline (PBS) and seeded at 50,000 cells/well (50 μL) in ZO Fortified. Working stocks, 50 μL, were then immediately added on top of the cells (day 0). Plates were incubated at 25° C. for four days, and then imaged at 10× magnification on a Nikon microscope using automated screen acquisition in MetaMorph® software. Plates were then treated with CyQUANT® (0.25× final concentration) for one hour at 25° C., and fluorescent intensity was measured with a plate reader (Biotek Synergy H2).
(§5) Strictly standardized mean difference (SSMD) scores for classifying assay quality were calculated with respect to negative controls on a plate-wise basis, with the average assay quality being excellent for both cell lines and screened concentrations. […] As a hit selection metric we used z-scores, which measure the number of standard deviations from the negative control that a small molecule treatment causes. Z-scores were calculated on a plate-wise basis, and hit cutoffs of z=±3 were selected. Visual inspection of images was used to remove false-positive hits, which generally occurred due to autofluorescence of a few of the compounds.

S2 cells [2] = test: as above; details: for compound z-score (zS2): 4 days, z vs negative control, hit cutoffs z=±3; for hit call, primary screen: hit cutoffs ±3
Procedure: as §1, §2, §3, §4, §5

C1.8 cells [3] = test: Secondary screen in ZB Media (ZO Fortified with spermidine), CyQUANT; details: C1.8 cells in ZB Media, hit cutoffs ±3
Procedure: as §1, §2
(§6) Representative positive and negative control wells can be found in FIG. 7. Compound z-scores were calculated similarly, hit cutoffs of ±3 were established visual inspection of confocal images was used to remove false-positive hits. This analysis yielded 8 C1.8 and 27 S2 positive hit compounds and 12 C1.8 and 27 S2 negative hit compounds (FIGS. 8-10).

S2 cells [4] = test: as above; details: hit cutoffs ±3
Procedure: as §1, §2, §6

[5] = system: polyamine-depleted C1.8 cells; test: Polyamine-depleted spermidine dose-response, manual cell count; details: ZO Fortified
Procedure: C1.8 cells were rinsed three times in PBS and seeded in ZO Fortified at 1×10^6 cell/mL. After nine days of culture in ZO Fortified, cells were harvested and seeded in tissue culture flasks in ZO Fortified supplemented with 0, 0.1, 1, or 10 μM spermidine (in triplicate). After 6 days of culture, cells were manually counted.

ERK in C1.8 cells = test: Western blot of ERK and dpERK (MAPK activity)
Procedure: (§7) For western blots, C1.8 and S2 cells were rinsed three times in PBS and seeded in tissue culture flasks at a concentration of 1,000,000 cell/mL in the various media. Cells were cultured until positive control samples (complete media) reached ˜90% confluency, at which point all cell samples were lysed for 30 minutes on ice in a buffer containing 50 mM Tris, 150 mM NaCl, 1% Nonidet P 40 substitute (Sigma 74385), and 1% Sigma protease inhibitor cocktail (P8340). Nucleic acid and cell debris were cleared by centrifugation at 12,000 rpm for 20 minutes at 4° C. Because polyamines are known to play roles in initiation of transcription and translation, “housekeeping” genes routinely used as loading controls for western blots are likely inappropriate for this application. Thus samples were normalized by total loaded protein. Sample protein concentrations were determined three independent times per sample using Coomassie Plus (Bradford) Assay (Thermo Scientific 23238). ANOVA comparison of loading concentrations across all samples found no significant variation between samples (p>0.34). Proteins were resolved by SDS-PAGE in reducing conditions, electroblotted to PVDF membranes (Hybone 10600087), and probed with either 1:1000 anti-rabbit p44/p42 MAPK (Erk1/2) (Cell Signaling) or 1:1500 anti-mouse MAPK (dpERK1/2) (Sigma). Blots were developed using WesternBreeze chromogenic western blot immunodetection kit (Invitrogen) and quantification was done in Fiji (Schindelin et al., Nat. Methods, 2012, 9, 676-682).

ERK in S2 cells = test: Western blot of ERK and dpERK (MAPK activity); details: spermidine supplementation, p>0.45
Procedure: as §7

C1.8 cells [6] = test: Long-term culture in chemically defined medium; details: passaged 1:2 retaining half of spent media
Procedure: (§8) Cells were rinsed 3× in PBS and then seeded at high confluency in ZO Fortified and ZB Media (ZO Fortified supplemented with 1 μM spermidine). Upon reaching confluency, cells were passaged 1:2 retaining half of the spent media.
(§9) C1.8, S2, and Kc167 (Kc) cells were expanded in optimized serum-containing media, C1.8, S2, and Kc167 media, respectively. C1.8 media contains M3 media (Sigma-Aldrich) supplemented with FBS (2%), insulin (5 μg/m), and fly extract (2.5%). S2 media is based on Schneider's media (Gibco® Life Technologies) supplemented with FBS (10%). Kc media containing M3 media supplemented with yeast extract (10 mg/mL), bactopeptone (25 mg/mL), and 5% FBS. All cell lines were obtained and cultured according to instructions from the Drosophila Genomics Resource Center (DGRC). Fly extract was prepared from adult yw flies as described by the DGRC. For culture in chemically defined media, cells were rinsed three times in PBS to remove residual serum and seeded at around 70% confluency in ZO Fortified or ZB Media (ZO Fortified with 1 μM spermidine added at time of passage). Upon reaching confluency, cells were passaged 1:2 retaining half the spent media, similar to routine maintenance in complete media, with cells passaged in ZB Media receiving fresh doses of 1 μM spermidine.

S2 cells [7] = test: Long-term culture in chemically defined medium; details: passaged 1:2 retaining half of spent media
Procedure: as §8, §9

Structure (SMILES) | compound z-score (zC1.8) (C1.8 cells [1]) | hit call, primary screen (C1.8 cells [1]) | compound z-score (zS2) (S2 cells [2]) | hit call, primary screen (S2 cells [2]) | other results
NCCCNCCCCNCCCN [spermine] | 10.4 | positive hit | 17.7 | positive hit | 
Cc1cc(/C=C/c2ccc3cc(N(C)C)ccc3[n+]2C)c(C)n1-c1ccccc1 [pyrvinium pamoate] | −17.7 |  | −13.0 |  | 
CC(O)=C(C#N)C(=O)Nc1cc(Br)ccc1Br [LFM-A13, α-cyano-β-hydroxy-β-methyl-N-(2,5-dibromophenyl)propen-amide] |  |  |  |  | hit call, secondary screen (C1.8 cells [3]): positive hit; hit call, secondary screen (S2 cells [4]): positive hit
CC1=C(O)C(=O)[C@@H]2O[C@@H]2C1=O [terreic acid] |  |  |  |  | hit call, secondary screen (C1.8 cells [3]): positive hit; hit call, secondary screen (S2 cells [4]): positive hit
CN[C@@H]1C[C@H]2O[C@@](C)([C@@H]1OC)n1c3ccccc3c3c4c(c5c6ccccc6n2c5c31)C(=O)NC4 [staurosporine] | −18.6 |  | −17.3 |  | 
NCCCCNCCCN [spermidine] | 10.0 | positive hit | 8.7 | positive hit | proliferation (cell number) ([5]; 1 μM spermidine compared to 0 or 0.1 μM, 6 days, p<5×10^−10): significant increase in proliferation; proliferation (cell number) ([5]; higher dose (10 μM) spermidine, after 6 days): failed to produce any statistically significant increases in cell number; ERK double phosphorylation (dpERK) (ERK in C1.8 cells; spermidine supplementation (ZB Media) vs ZO Fortified, p<0.012): increase ERK double phosphorylation; total ERK levels (ERK in C1.8 cells; spermidine supplementation, p>0.45): not significantly influenced; total ERK levels (ERK in S2 cells): not significantly influenced; passages reached in long-term culture (C1.8 cells [6]): ≥ 98 passages; passages reached in long-term culture (C1.8 cells [6]; listed as Spermidine): > 15 passages; passages reached in long-term culture (S2 cells [7]): 4 passages
NCCCCN [putrescine, butane-1,4-diamine] |  | positive hits |  | positive hits | 
CO[C@@H]1[C@H](N(C)C(=O)c2ccccc2)C[C@H]2O[C@]1(C)n1c3ccccc3c3c4c(c5c6ccccc6n2c5c31)C(=O)NC4 [PKC-412] | −17.1 |  | −11.0 |  | 
CC(C)(C)c1cc(/C=C(\C#N)C(N)=S)cc(C(C)(C)C)c1O [AG-879] | −17.3 |  | −13.9 |  | 
